Experimental data from patent publication US10329304B2, “Compounds and methods for inhibition of hedgehog signaling and phosphodiesterase” (Vanderbilt University, priority 2014, dated 2019).
Where two headings read alike, the source gives them in different places.

Key:
PDE4D2 = molecular target: T1, PDE4D2 (Homo sapiens, UniProt Q08499); test: In vitro PDE assay; assay type: biochemical; conditions: Table 9A
T1 construct: purchased BPS Biosciences (San Diego, Calif.)
Procedure: (§1) In vitro PDE profiling and dose-response assays were performed by BPS Biosciences (San Diego, Calif.). Kinetic Mechanism of inhibition studies were conducted by Millipore (St. Louis, Mo.). In brief, the PDE assay measures fluorescent polarization of FAM-AMP as FAM-cAMP is converted to FAM-AMP by PDE), the binding agent.
(§2) A series of dilutions of the test compound were prepared with 10% DMSO in assay buffer and 5 μl of the dilution was added to a 50 μl reaction so that the final concentration of DMSO is 1% in all of reactions. All of the PDE enzymatic reactions were conducted in duplicate at room temperature for 60 minutes in a 50 μl mixture containing PDE assay buffer (10 mM Tris-HCl, pH7.4, 10 mM MaCl2, 0.05% Tween 20), 100 nM FAM-cAMP, a PDE enzyme and a test compound.
(§3) After the enzymatic reaction, 100 μl of a binding solution (1:100 dilution of the binding agent, which contains the nano beads that recognize FAM-AMP, with the binding agent diluent) was added to each reaction and the reaction was performed at room temperature for 60 minutes. Fluorescence intensity was measured at an excitation of 485 nm and an emission of 528 nm using a Tecan Infinite M1000 microplate reader. Assays done by Millipore were conducted similarly with changes noted below: […]

PDE4D3 = molecular target: T2, PDE4D3 (Homo sapiens, UniProt Q08499); test: In vitro PDE assay; assay type: biochemical
T2 construct: purchased BPS Biosciences (San Diego, Calif.); kinetic studies by Millipore (St. Louis, Mo.)
T2 sequence (Q08499 1-673 isoform Q08499-2): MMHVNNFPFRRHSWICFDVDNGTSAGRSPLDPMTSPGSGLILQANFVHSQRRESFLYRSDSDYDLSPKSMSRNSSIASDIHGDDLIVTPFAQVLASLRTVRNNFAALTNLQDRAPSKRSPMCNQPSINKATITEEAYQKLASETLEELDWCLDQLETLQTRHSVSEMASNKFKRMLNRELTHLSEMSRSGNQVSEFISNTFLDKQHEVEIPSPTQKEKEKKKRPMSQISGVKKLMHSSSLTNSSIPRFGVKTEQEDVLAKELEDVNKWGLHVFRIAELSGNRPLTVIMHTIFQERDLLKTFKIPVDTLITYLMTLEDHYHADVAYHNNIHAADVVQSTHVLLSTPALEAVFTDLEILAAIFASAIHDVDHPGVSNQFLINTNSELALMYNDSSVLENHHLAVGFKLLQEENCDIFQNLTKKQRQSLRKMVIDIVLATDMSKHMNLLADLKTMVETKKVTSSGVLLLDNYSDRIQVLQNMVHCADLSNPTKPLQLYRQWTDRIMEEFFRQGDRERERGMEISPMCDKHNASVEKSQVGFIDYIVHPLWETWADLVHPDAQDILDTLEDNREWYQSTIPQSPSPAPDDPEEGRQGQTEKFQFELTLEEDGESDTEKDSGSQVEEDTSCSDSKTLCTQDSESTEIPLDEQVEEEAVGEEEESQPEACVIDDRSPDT
Procedure: as §1, §2, §3

[1] = test system: Hedgehog signaling (TM3-Gli-Luc); test: TM3-Gli-Luc luciferase reporter assay stimulated with 20 nM SAG; assay type: cell-based
How it was run: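 TM3-Gli-Luc cells on 0.1% gelatin in DMEM/F12 with 2.5% FBS, treated 48 h with compound plus 20 nM SAG. Steady-Glo luminescence normalized to CellTiter-Glo viability, DMSO-only (no SAG) background subtracted, percent of SAG control. EC50 averaged from ≥2 independent days ±SEM.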

PDE4D = PDE4D (Homo sapiens, UniProt Q08499); test: PDE4 inhibition assay (PDE4D IC50); assay type: biochemical
Procedure: as §1, §2
After the enzymatic reaction, 100 μl of a binding solution (1:100 dilution of the binding agent, which contains the nano beads that recognize FAM-AMP, with the binding agent diluent) was added to each reaction and the reaction was performed at room temperature for 60 minutes. Fluorescence intensity was measured at an excitation of 485 nm and an emission of 528 nm using a Tecan Infinite M1000 microplate reader. Assays done by Millipore were conducted similarly with changes noted below:
Hedgehog signaling inhibition and PDE4 inhibition of various compounds disclosed herein was assayed as described herein above.

[2] = Lipophilic efficiency (LipE = pEC50 − cLogP) and cLogP
Procedure: Therefore, we prioritized phenotypic analog evaluation in the Gli-responsive luciferase reporter line TM3-Gli-Luc stimulated with 20 nM Smo agonist (SAG) while concurrently monitoring non-specific cellular toxicity. Additionally, lipophilic efficiency (LipE), a concurrent readout of a compound's potency (pEC50) and lipophilicity (cLogP) derived by subtracting the latter from the former, was utilized to optimize solubility properties (Table 12B), allowing for straightforward tracking of compounds with improvements in both parameters.

[3] = test system: Hedgehog signaling (Gli-Luc reporter); test: Hh Gli-Luciferase reporter assay in Shh-Light2 cells; assay type: cell-based, mouse
Procedure: For Hh signaling assays, Shh-Light2 cells stably transfected with Gli-Luciferase reporter construct were used along with Shh-conditioned media, as previously described^7. Alternatively, 3 μM purmorphamine or 20 nM Smoothened agonist (SAG) (Santa Cruz Biotechnology, Santa Cruz, Calif.) was used to induce Hh signaling. Reporter cells were seeded in 96-well plates and incubated overnight with the various concentrations of eggmanone and Shh-conditioned media. To assess the effects of overexpression of Gli-2, PDE4D3 and DN-PDE4D3 on Hh signaling, mammalian expression vectors containing these constructs were transfected into Shh-Light2 cells in 96-well plates using Fugene6 (Roche), according to manufacturer's instructions. The transfected or Shh-stimulated cells were incubated overnight with the various concentrations of compound. The cells were then lysed, and cell extracts were subjected to Steady-Glo luciferase assay (Promega) according to manufacturer's instructions. The results were normalized to cell titer, as determined using Cell Titer-Glo luminescence assay (Promega).

DU145 = test: Cell viability assay (CellTiter-Blue, 72 hr); assay type: cell-based, Human; conditions: DU-145; human cancer cells; read-out: CELL KILLING EC50 (μM) Prostate DU145
Procedure: (§4) Cancer cell lines were seeded in 96 well tissue culture plate at a low density (10,000 cells per well) and treated with varying concentrations of Eggmanone. After 72 hr incubation, CellTiter-Blue Cell Viability Assay (Promega, Madison, Wis.) was then performed according to manufacturer's protocol. Absorbance was then measured in a Modulus Microplate reader (Promega, Madison, Wis.) at 590 nm and compared to cells treated with DMSO.
(§5) Cancer cell lines were seeded in 96 well tissue culture plate at a low density and treated with varying concentrations of compounds identified in Table 7. After 72 hr incubation, CellTiter-Blue Cell Viability Assay (Promega, Madison, Wis.) was then performed according to manufacturer's protocol. Absorbance was then measured in a Modulus Microplate reader (Promega, Madison, Wis.) at 590 nm and compared to cells treated with DMSO.

DaoY = test: Cell viability assay (CellTiter-Blue, 72 hr); assay type: cell-based, Human; conditions: Daoy; human cancer cells; read-out: CELL KILLING EC50 (μM) Medulloblastoma DaoY
Procedure: as §4, §5

HeLa = test: Cell viability assay (CellTiter-Blue, 72 hr); assay type: cell-based, Human; conditions: human cancer cells, read-out: CELL KILLING EC50 (μM) Cervix HeLa
Procedure: as §4, §5

MDA-MB- 231 = test: Cell viability assay (CellTiter-Blue, 72 hr); assay type: cell-based, Human; conditions: MDA-MB-231; human cancer cells; read-out: CELL KILLING EC50 (μM) Breast MDA-231
Procedure: as §4, §5

RKO = test: Cell viability assay (CellTiter-Blue, 72 hr); assay type: cell-based, Human; conditions: RKO; human cancer cells; read-out: CELL KILLING EC50 (μM) Colon RKO
Procedure: as §4, §5

RWGT2 = test: Cell viability assay (CellTiter-Blue, 72 hr); assay type: cell-based, Human; conditions: human cancer cells; read-out: CELL KILLING EC50 (μM) Lung Squam, NSCLC RWGT2
Procedure: as §4, §5

SW480 = test: Cell viability assay (CellTiter-Blue, 72 hr); assay type: cell-based, Human; conditions: SW480; human cancer cells; read-out: CELL KILLING EC50 (μM) Colon SW480
Procedure: as §4, §5

MCF7 = test: Cell viability assay (CellTiter-Blue, 72 hr); assay type: cell-based; conditions: MCF7; human cancer cells; read-out: CELL KILLING EC50 (μM) Breast MCF7
Procedure: as §4, §5

PC3 = test: Cell viability assay (CellTiter-Blue, 72 hr); assay type: cell-based; conditions: PC-3; human cancer cells; read-out: CELL KILLING EC50 (μM) Prostate PCx3
Procedure: as §4

H82 = test: Cell killing EC50 in H82 lung cancer cells (Table 10); assay type: cell-based; conditions: NCI-H82; human cancer cells
Procedure: It is anticipated that compounds disclosed herein could serve as an anti-tumor, anti-angiogenic, anti-metastatic, agent in the treatment of cancer. To this end, a series of clinically relevant cancer lines were assayed and the cell-killing EC50s for compounds according to the subject matter disclosed herein are provided in Table 10.

Gli1 mRNA = test: Hh % Inh.: SAG-induced Gli1 expression in C3H10T½ cells (qPCR); assay type: cell-based; conditions: Mus musculus, C3H 10T1/2, SAG-induced (100 nM), 24 hours; for inhibition at 1 µM: 1 pM [sic], read-out: C3H10T1/2 qPCR, Gh1 mRNA % Inh., 1 pM; for inhibition at 10 µM: 10 pM [sic], read-out: C3H10T1/2 qPCR, Gh1 mRNA % Inh., 10 pM
Procedure: Compounds are dosed from 10 mM DMSO stock solutions, and mRNA is isolated after 24 hours of compound treatment. mRNA is reverse transcribed to produce cDNA which is quantified by quantitative polymerase chain reaction (qPCR) in triplicate and levels are normalized to GAPDH levels. Data is presented as percent inhibition compared to positive control (SAG).

[4] = Table 9A, read-out: TM3 G8 Luciferase EC 50
[5] = 20 nM SAG, mean ± standard error of the mean, read-out: TM3-Gli-Luc EC50
[6] = Calculated as pEC50 - cLogP, Molinspiration Cheminformatics
[7] = TM3-Gli-Luc reporter line stimulated with 20 nM SAG, mean ± SEM, Table 13, read-out: TM3-Gli-Luc EC50
[8] = calculated as pEC50 - cLogP (Molinspiration Cheminformatics), Table 13

T1 sequence (Q08499 303-809): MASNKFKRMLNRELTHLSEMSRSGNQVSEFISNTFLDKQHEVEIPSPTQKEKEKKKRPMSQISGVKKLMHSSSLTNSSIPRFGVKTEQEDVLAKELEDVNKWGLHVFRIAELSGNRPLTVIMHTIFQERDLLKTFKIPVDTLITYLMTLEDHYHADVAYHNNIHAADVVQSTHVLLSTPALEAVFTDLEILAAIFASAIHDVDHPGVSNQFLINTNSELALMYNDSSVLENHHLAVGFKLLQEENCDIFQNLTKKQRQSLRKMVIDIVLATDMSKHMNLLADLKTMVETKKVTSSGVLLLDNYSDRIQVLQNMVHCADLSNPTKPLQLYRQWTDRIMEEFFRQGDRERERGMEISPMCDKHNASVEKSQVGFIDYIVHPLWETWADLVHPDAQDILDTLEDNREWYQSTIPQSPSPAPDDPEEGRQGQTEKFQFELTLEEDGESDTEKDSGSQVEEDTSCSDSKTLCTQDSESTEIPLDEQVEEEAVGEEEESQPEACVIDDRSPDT

C=C(C)Cn1c(SCC(=O)N2CCCC[C@H]2C)nc2sc3c(c2c1=O)CCCC3 [Formula 1ANQ]
IC50 (PDE4D2): 1.2 µM
IC50 (PDE4D3; Table 9A): 1.7 µM
TM3 G8 Luciferase % Inh., 0.5 pM ([1]; 0.5 pM as printed): 17.4%

C=CCn1c(SCC(=O)c2ccccn2)nc2sc3c(c2c1=O)CCCC3 [Formula 1KL1]
IC50 (PDE4D2): 25 µM
IC50 (PDE4D3; Table 9A): 62 µM

C=CCn1c(SCC(=O)c2ccncc2)nc2sc3c(c2c1=O)CCCC3 [Formula 1KMH]
IC50 (PDE4D2): 5 µM
IC50 (PDE4D3; Table 9A): 8.2 µM

C=CCn1c(SCC(=O)N2CCCC[C@H]2C)nc2sc3c(c2c1=O)CCCC3 [Formula 1KMR]
IC50 (PDE4D2): 7.6 µM
IC50 (PDE4D3; Table 9A): 11 µM

C=CCn1c(SCC(=O)N2Cc3ccccc3C2)nc2sc3c(c2c1=O)CCCC3 [Formula 1KYW]
IC50 (PDE4D2): > 100 µM
IC50 (PDE4D3; Table 9A): > 100 µM

C=CCn1c(SCC(=O)N2CCOCC2)nc2sc3c(c2c1=O)CCCC3 [Formula 1L4R]
IC50 (PDE4D2): > 100 µM
IC50 (PDE4D3; Table 9A): > 100 µM
EC50 [1, 4]: 2820 nM

C=C(C)Cn1c(SCC(=O)c2cccs2)nc2sc3c(c2c1=O)CCCC3 [Formula 3]
IC50 (PDE4D; mean ± SEM, normalized to DMSO, read-out: PDE4D IC50): 380 ± 20 nM
EC50 [1, 5]: 1340 ± 2 nM
EC50 ([1]; TM3-Gli-Luc reporter line stimulated with 20 nM SAG, mean ± SEM, Table 14, read-out: TM3-Gli-Luc EC50): 1340 ± 2 nM
LipE [2, 6]: 0.73
LipE ([2]; pEC50 - cLogP, Table 14): 0.73

C=C(C)Cn1c(SCC(=O)c2cccs2)nc2sc3c(c2c1=O)CCNC3 [Formula 10a]
EC50 [1, 5]: 6400 ± 330 nM
LipE [2, 6]: 1.45

O=C(CSc1nccc(=O)n1C1CC1)c1ccccc1 [Formula 14c]
Hh inhibitory activity / potency in words ([1]; 20 nM SAG): potency improvements over EGM1
EC50 [1, 7]: 1160 ± 390 nM
LipE [2, 8]: 2.46

C=C(C)Cn1c(SCC(=O)c2cccs2)nccc1=O [Formula 19a]
EC50 [1, 7]: 931 ± 110 nM
LipE [2, 8]: 2.06

C=C(C)Cn1c(SCC(=O)c2ccc(-c3ccccc3)cc2)nc2sc3c(c2c1=O)CCCC3 [Formula (19)]
Hh Inhibition Assay (EC50, μM) ([3]; Table 8): Inactive
IC50 (PDE4D; Table 8, read-out: PDE4 Inhibition Assay (IC50)): > 100000 nM

C=CCn1c(SCC(=O)c2ccccc2)nc2sc(CC)cc2c1=O [HI630]
EC50 ([3]; Mus musculus, Shh Light2, Table 9B, read-out: Shh Light2 Luc EC50): > 10 µM
IC50 (PDE4D3; Table 9B): 6 µM
EC50 (DU145): > 100 µM
EC50 (DaoY): > 100 µM
EC50 (HeLa): > 100 µM
EC50 (MDA-MB- 231): 23.1 µM
EC50 (RKO): 100 µM
EC50 (RWGT2): 44.4 µM
EC50 (SW480): 182 µM
EC50 (MCF7): > 100 µM
EC50 (PC3): > 100 µM
EC50 (H82): > 100 µM

O=C(CSc1nc2sc3c(c2c(=O)n1-c1ccccc1)CCCC3)c1cccs1 [JEH-3-058-1]
IC50 (PDE4D2): 45 µM
IC50 (PDE4D3; Table 9A): 14 µM
inhibition at 1 µM (Gli1 mRNA): 12%
inhibition at 10 µM (Gli1 mRNA): 85.3%
EC50 [1, 4]: 12600 nM

C=C(C)Cn1c(SCC(=O)N2CCOCC2)nc2sc3c(c2c1=O)CCCC3 [JEH-3-079]
IC50 (PDE4D2): 3.2 µM
IC50 (PDE4D3; Table 9A): 4.1 µM
inhibition at 1 µM (Gli1 mRNA): 25.1%
inhibition at 10 µM (Gli1 mRNA): 50.8%
EC50 [1, 4]: 18200 nM

CS(=O)(=O)c1ccc(C(=O)Nc2ccc(Cl)c(-c3ccccn3)c2)c(Cl)c1 [Vismodegib, reference compound]
Hh inhibitory activity / potency in words ([1]; 20 nM SAG): displayed expected potency
Hh inhibitory activity / potency in words ([1]; 20 nM SAG, listed as 1): low-nanomolar
EC50 [1, 5]: 13 ± 4 nM
LipE [2, 6]: 4.33
